Columns and labels:
Format in all cases: cell-based, human
[1] = test system: KIF21A at the cell edge of HeLa cells; assay: Peripheral clustering of KIF21A; settings: talin1/2-depleted HeLa rescue (Fig 4G); mean, n = 12, SEM 3.66709
Description: HeLa Kyoto cell line was described previously ([Lansbergen et al., 2006]; [Mimori-Kiyosue et al., 2005]). HEK293T cells were purchased from ATCC; culture and transfection of DNA and siRNA into these cell lines was performed as previously described ([van der Vaart et al., 2013]). HaCaT cells were purchased at Cell Line Service (Eppelheim, Germany) and cultured according to manufacturer’s instructions. The cell lines were routinely checked for mycoplasma contamination using LT07-518 Mycoalert assay (Lonza, Switzerland).The identity of the cell lines was monitored by immunofluorescence-staining-based analysis with multiple markers. Blebbistatin was purchased from Enzo Life Sciences and used at 50 μM. Serum starvation in HeLa cells was done for 48 hr and focal adhesion assembly was stimulated by incubation with fetal calf serum-containing medium with or without blebbistatin for 2 hr. […]
Fixed samples and corresponding immunofluorescence images were acquired using widefield fluorescence illumination on a Nikon Eclipse 80i or Ni upright microscope equipped with a CoolSNAP HQ2 CCD camera (Photometrics) or a DS-Qi2 camera (Nikon) an Intensilight C-HGFI precentered fiber illuminator (Nikon), ET-DAPI, ET-EGFP and ET-mCherry filters (Chroma), Nikon NIS Br software, Plan Apo VC 100x NA 1.4 oil, Plan Apo Lambda 100X oil NA 1.45 and Plan Apo VC 60x NA 1.4 oil (Nikon) objectives. […]

[2] = test system: microtubule plus ends in HeLa cells; assay: Ratio of microtubule growth rate in the cell center and at the cell edge; settings: depletion and rescue, EB3-mRFP
Description: (§1) nEB3-mRFP dynamics was recorded by 0.5 s interval time lapse TIRF imaging. Microtubule growth was measured using kymographs obtained from EB3-mRFP time lapse image series, plotted and presented as previously described ([van der Vaart et al., 2013]). Ratio of microtubule growth in cell center to periphery was obtained as values for individual cells. Microtubule growth trajectory angle to the cell edge was manually measured in ImageJ using tracks obtained by maximum intensity projection of EB3-mRFP image series.

[3] = test system: focal adhesions in HeLa cells; assay: FA number
Description: (§2) HeLa Kyoto cell line was described previously ([Lansbergen et al., 2006]; [Mimori-Kiyosue et al., 2005]). HEK293T cells were purchased from ATCC; culture and transfection of DNA and siRNA into these cell lines was performed as previously described ([van der Vaart et al., 2013]). HaCaT cells were purchased at Cell Line Service (Eppelheim, Germany) and cultured according to manufacturer’s instructions. The cell lines were routinely checked for mycoplasma contamination using LT07-518 Mycoalert assay (Lonza, Switzerland).The identity of the cell lines was monitored by immunofluorescence-staining-based analysis with multiple markers. Blebbistatin was purchased from Enzo Life Sciences and used at 50 μM. Serum starvation in HeLa cells was done for 48 hr and focal adhesion assembly was stimulated by incubation with fetal calf serum-containing medium with or without blebbistatin for 2 hr. ROCK1 inhibitor Y-27632 was purchased at Sigma-Aldrich and used at 1 or 10 μM. Double stable HeLa cell line expressing GFP-KANK1 and TagRFP-paxillin was made by viral infection. We used a pLVIN-TagRFP-paxillin-based lentivirus and a pQC-GFP-KANK1-based retrovirus packaged in HEK293T cells using respectively Lenti-X HTX packaging and pCL-Ampho vectors. Antibiotic selection was applied to cells 48 hr after infection using 500 μg/ml G418 (Geneticin, Life Technologies) and 1 μg/ml puromycin (InvivoGen).
(§3) For presentation, images were adjusted for brightness and processed by Gaussian blur and Unsharp mask filter using ImageJ 1.47v (NIH). Fluorescence profiles are values measured by line scan analysis in ImageJ, normalized by background average fluorescence, expressed as a factor of the baseline value obtained for individual channel and plotted as a function of maximum length factor of the selection line (distance ratio). Protein clustering at the cell edge is the ratio of the total fluorescence in the first 5 μm from the cell edge to the next 5 μm measured by line scan analysis in ImageJ after thresholding for cell outline marking and out-of-cell region value assigned to zero. The results were plotted as percentage of control condition average value. FA counting and area measurement was performed using Analyze Particles under ImageJ on focal adhesion binary mask obtained after Gaussian blur/threshold-based cell outline marking and background subtraction (rolling ball radius, 10 pixels). KANK1/talin colocalization was analyzed using Pearson R value provided by Colocalization Analysis plugin under FiJi-ImageJ and a 3 μm diameter circular ROI centered on talin clusters detected by immunofluorescent staining.

HeLa cells = assay: Cell area, attachment and spreading; set-up: AV Cell Area: unit not given here
Description: as §2, §3

[4] = test system: microtubule plus ends in HeLa cells; assay: Angles of microtubule growth relative to the cell margin; settings: talin1/2-depleted HeLa
Description: as §1

For “GFP-talin1-G1404L: GFP-tagged mouse talin1 with single point mutation G1404L”, the “Peripheral clustering of KIF21A, percentage of control, AV, talin rescue” value [1] was 41.905 percentage of control condition average value, the “microtubule growth, fold slower at cell margin/edge than in cell center” value [2] was 1.5 fold and the “AV #FA” value ([3]; HeLa, TLN1-KD, mTLN1 rescue, mean FA number per cell, Count 12) was 55.3333. The “number and size of focal adhesions (in words)” value ([3]; compared to rescue with wild type talin1) was “not significantly different”, the “AV Cell Area” value (HeLa cells; HeLa, TLN1-KD, mTLN1 rescue, mean, Count 13) was 1671.82 and the “cell area (in words)” value (HeLa cells; compared to rescue with wild type GFP-talin1) was “slightly increased compared to cells rescued with the wild type GFP-talin1”. For the same substance, the “cell attachment and spreading (in words)” value (HeLa cells; talin1/2-depleted HeLa) was “could fully support cell attachment and spreading” and the “proportion of microtubules growing parallel to the cell edge (in words)” value [4] was “greatly increased”.
